From US9428507B2, “Compounds for the treatment of malaria” (The Broad Institute, Inc., priority 2013, dated 2016)

Assays:
Assay type in all cases: cell-based
[1] = system: P. falciparum 3D7 gametocytes; experiment: P. falciparum gametocyte viability assay; conditions: Plasmodium falciparum, 72 hours, Cell-titer glo, read-out: IC50 erythocytic stage (P. falciparum) sexual (IV & V)
Method: P. falciparum 3D7 stage Ill-V gametocytes were isolated by discontinuous Percoll gradient centrifugation of parasite cultures treated with 50 mM N-acetyl-D-glucosamine for 3 days to kill asexual parasites. Gametocytes (1.0×10^5) were seeded in 96-well plates and incubated with compounds for 72 hours. In vitro anti-gametocyte activity was measured using Cell-titer glo (Promega).

[2] = system: Dd2 strain of P. falciparum; experiment: Activity against the Dd2 strain of P. falciparum (SYBR Green I, 72-h incubation); conditions: Plasmodium falciparum, DD2, 72 h, read-out: EC^50 Dd2
Method in brief: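 Dd2 parasites at 1% parasitemia and 1.0% hematocrit in albumax II screening medium, 72 h at 37° C under 93% N2/4% CO2/3% O2; final DMSO 0.125%. Growth read as SYBR Green I fluorescence (485/530 nm) after lysis and 24 h staining. 20 μM mefloquine defined background, DMSO baseline.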

[3] = system: P. falciparum V1/3; experiment: In vitro P. falciparum blood-stage assay, strain V1/3; conditions: Plasmodium falciparum
Method: (§1) Strains of Plasmodium falciparum (Dd2, 3D7, D6, K1, NF54, V1/3, HB3, 7G8, FCB, TM90C2B) were obtained from Malaria Research and Reference Reagent Resource Center (MR4). P. falciparum isolates were maintained with O-positive human blood in an atmosphere of 93% N2, 4% CO2, 3% O2 at 37° C. in complete culturing medium (10.4 g/L RPMI 1640, 5.94 g/L HEPES, 5 g/L albumax II, 50 mg/L hypoxanthine, 2.1 g/L sodium bicarbonate, 10% human serum and 43 mg/L gentamicin). Parasites were cultured in medium until the parasitemia reached 3-8%. Parasitemia was determined by checking at least 500 red blood cells from a Giemsa-stained blood smear. For the compound screening, a parasite suspension at 2.0% parasitemia and 2.0% hematocrit was created with medium. 25 μl of medium was dispensed into 384-well, black, clear-bottom plates. 100 nl of compounds in DMSO was transferred into the assay plates along with control compound (mefloquine). Next, 25 μl of the parasite suspension in medium was dispensed into the assay plates such that the final parasitemia was 1% and the final hematocrit was 1%. The assay plates were incubated for 72 hours at 37° C. […] The assay plates were read with 505 dichroic mirrors with 485-nm excitation and 530-nm emission settings.

[4] = system: P. falciparum Dd2; experiment: In vitro P. falciparum blood-stage assay, strain Dd2; conditions: Plasmodium falciparum
Method: as §1

[5] = system: P. falciparum D6; experiment: In vitro P. falciparum blood-stage assay, strain D6; conditions: Plasmodium falciparum
Method: as §1

[6] = system: P. berghei (ANKA GFP-luc); experiment: In vitro P. berghei liver-stage assay in HepG2 cells; conditions: Plasmodium berghei, 48 hour incubation, read-out: IC50 exo-erythrocytic stage P. berghei
Method: In vitro P. berghei liver-stage assay HepG2 cells were maintained in DMEM, 10% (vol/vol) FBS (Sigma), and 1% (vol/vol) antibiotic-antimycotic in a standard tissue culture incubator (37° C., 5% CO2). P. berghei (ANKA GFP-luc) infected Anopheles stephensi mosquitoes were obtained from the New York University Langone Medical Center Insectary (New York). For assays, ˜17,500 HepG2 cells per well were added to a 384-well microtiter plate in duplicate. After 18-24 h at 37° C. the media was exchanged and compounds were added. After 1 hour, parasites obtained from freshly dissected mosquitoes were added to the plates (4,000 parasites per well), the plates were spun for 10 min at 1,000 rpm, and then the plates were incubated at 37° C. The final assay volume was 30 μL. After a 48 hour incubation at 37° C., Bright-Glo (Promega) was added to the parasite plate to measure relative luminescence. The relative signal intensity of each plate was evaluated with an EnVision (PerkinElmer) system.

[7] = system: P. falciparum FCB; experiment: In vitro P. falciparum blood-stage assay, strain FCB; conditions: Plasmodium falciparum
Method: as §1

Work on `COc1ccc2c3c([nH]c2c1)[C@H](CO)N(C(C)=O)CC31CCN(C(=O)Nc2ccccc2F)CC1` [Compound 15, (R)-2′-acetyl-N-(2-fluorophenyl)-1′-(hydroxymethyl)-7′-methoxy-1′,2′,3′,9′-tetrahydrospiro [piperidine-4,4′-pyrido[3,4-b]indole]-1-carboxamide] yielded an IC50 [1] of 0.643 µM, an EC50 [2] of 0.015 to 0.178 µM and an IC50 [3] of 98 nM. The IC50 [4] was 73 nM, the IC50 [5] was 70 nM and the IC50 [6] was 0.459 µM. For the same molecule, the IC50 [7] was 130 nM.
